{"source": "paper PMC11233931", "about": "“Remodeling tumor‐associated macrophage for anti‐cancer effects by rational design of irreversible inhibition of mitogen‐activated protein kinase‐activated protein kinase 2” (MedComm, 2024)", "experiment_in_all_cases": "Eurofins kinase selectivity profile against 380 other human recombinant kinases (Table S2)", "format_in_all_cases": "biochemical", "key": {"[1]": {"biological_target": "T1, 380 human recombinant protein kinases (Homo sapiens, UniProt O00418)", "T1 construct": "purchased Eurofins (Celle Lévescault)", "T1 sequence (O00418 1-725)": "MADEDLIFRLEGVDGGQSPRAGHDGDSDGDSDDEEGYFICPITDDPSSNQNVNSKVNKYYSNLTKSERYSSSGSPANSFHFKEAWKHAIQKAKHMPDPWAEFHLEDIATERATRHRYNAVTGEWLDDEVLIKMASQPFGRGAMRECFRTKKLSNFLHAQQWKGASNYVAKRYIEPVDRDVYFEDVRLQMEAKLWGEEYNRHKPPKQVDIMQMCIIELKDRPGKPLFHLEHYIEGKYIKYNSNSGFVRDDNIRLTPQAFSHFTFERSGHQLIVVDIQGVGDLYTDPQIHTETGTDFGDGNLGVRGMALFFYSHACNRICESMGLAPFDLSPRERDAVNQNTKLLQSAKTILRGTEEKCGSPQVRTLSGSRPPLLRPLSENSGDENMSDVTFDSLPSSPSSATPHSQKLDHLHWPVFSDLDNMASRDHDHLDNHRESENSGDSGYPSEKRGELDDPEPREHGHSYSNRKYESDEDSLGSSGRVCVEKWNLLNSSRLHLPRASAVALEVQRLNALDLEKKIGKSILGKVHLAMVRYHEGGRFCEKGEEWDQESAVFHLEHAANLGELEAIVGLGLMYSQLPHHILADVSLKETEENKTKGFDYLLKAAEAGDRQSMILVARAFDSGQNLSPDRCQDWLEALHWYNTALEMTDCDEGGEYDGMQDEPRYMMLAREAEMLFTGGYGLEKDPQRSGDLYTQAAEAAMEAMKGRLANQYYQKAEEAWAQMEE", "settings": "eEF-2K(h), read-out: Inhibition rate", "outline": "(§1)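 Outsourced panel: 380 human recombinant kinases; inhibitor tested at various concentrations; purpose: MK2 selectivity check.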"}, "[2]": {"biological_target": "T2, 380 human recombinant protein kinases (Homo sapiens, UniProt O60674)", "T2 construct": "purchased Eurofins (Celle Lévescault)", "T2 sequence (O60674 whole entry)": "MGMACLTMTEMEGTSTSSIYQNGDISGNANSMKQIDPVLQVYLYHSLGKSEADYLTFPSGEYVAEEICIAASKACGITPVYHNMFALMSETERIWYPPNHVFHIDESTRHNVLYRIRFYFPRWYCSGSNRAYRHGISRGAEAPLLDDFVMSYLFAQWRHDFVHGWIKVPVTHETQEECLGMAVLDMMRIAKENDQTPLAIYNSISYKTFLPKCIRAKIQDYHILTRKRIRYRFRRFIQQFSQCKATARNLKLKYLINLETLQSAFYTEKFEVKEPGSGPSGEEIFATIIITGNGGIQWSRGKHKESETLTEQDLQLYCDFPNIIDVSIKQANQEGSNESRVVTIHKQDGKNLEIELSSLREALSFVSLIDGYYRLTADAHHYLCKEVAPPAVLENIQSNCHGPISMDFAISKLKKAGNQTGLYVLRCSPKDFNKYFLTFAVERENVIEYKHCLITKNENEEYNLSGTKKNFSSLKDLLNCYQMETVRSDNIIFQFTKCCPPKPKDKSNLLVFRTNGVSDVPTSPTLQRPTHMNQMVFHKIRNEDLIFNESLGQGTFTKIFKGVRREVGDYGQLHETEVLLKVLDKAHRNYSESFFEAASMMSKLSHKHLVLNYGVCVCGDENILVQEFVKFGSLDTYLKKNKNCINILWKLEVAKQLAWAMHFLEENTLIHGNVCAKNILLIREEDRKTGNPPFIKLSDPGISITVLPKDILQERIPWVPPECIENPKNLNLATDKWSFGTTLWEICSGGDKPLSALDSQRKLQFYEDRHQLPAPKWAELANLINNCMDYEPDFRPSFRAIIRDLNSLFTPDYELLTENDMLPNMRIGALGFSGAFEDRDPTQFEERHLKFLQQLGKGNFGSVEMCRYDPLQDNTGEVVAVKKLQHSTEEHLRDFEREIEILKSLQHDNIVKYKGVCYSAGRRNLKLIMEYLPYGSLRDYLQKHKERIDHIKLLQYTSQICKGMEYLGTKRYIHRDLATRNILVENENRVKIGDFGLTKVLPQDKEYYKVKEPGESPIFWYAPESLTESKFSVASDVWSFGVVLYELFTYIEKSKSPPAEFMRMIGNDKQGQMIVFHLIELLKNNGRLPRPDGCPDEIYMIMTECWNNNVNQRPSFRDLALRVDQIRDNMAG", "settings": "JAK2(h), read-out: Inhibition rate", "outline": "as §1"}, "[3]": {"biological_target": "T3, 380 human recombinant protein kinases (Homo sapiens, UniProt O75716)", "T3 construct": "purchased Eurofins (Celle Lévescault)", "T3 sequence (O75716 whole entry)": "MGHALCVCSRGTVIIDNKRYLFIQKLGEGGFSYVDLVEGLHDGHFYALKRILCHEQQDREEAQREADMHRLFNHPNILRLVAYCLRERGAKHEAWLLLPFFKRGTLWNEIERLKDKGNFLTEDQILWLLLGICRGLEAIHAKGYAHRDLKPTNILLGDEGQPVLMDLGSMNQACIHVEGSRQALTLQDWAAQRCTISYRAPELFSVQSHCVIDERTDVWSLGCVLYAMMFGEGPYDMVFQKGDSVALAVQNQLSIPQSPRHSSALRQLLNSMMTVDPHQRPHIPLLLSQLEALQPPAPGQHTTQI", "settings": "STK16(h), read-out: Inhibition rate (%)", "outline": "as §1"}, "[4]": {"biological_target": "T4, 380 human recombinant protein kinases (Homo sapiens, UniProt P28482)", "T4 construct": "purchased Eurofins (Celle Lévescault)", "T4 sequence (P28482 whole entry)": "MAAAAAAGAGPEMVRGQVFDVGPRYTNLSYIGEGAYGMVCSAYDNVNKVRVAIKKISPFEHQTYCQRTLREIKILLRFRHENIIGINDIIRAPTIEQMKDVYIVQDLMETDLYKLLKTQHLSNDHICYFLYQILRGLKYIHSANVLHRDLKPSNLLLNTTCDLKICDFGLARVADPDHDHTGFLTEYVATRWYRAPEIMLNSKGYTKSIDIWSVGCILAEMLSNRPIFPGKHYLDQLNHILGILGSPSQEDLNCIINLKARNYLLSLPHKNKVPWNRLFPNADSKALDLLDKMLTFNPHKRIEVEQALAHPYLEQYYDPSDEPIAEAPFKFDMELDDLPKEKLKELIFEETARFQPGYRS", "settings": "MAPK2(h), read-out: Inhibition rate", "outline": "as §1"}, "[5]": {"biological_target": "T5, 380 human recombinant protein kinases (Homo sapiens, UniProt Q15746)", "T5 construct": "purchased Eurofins (Celle Lévescault)", "settings": "MLCK(h), read-out: Inhibition rate", "outline": "as §1"}, "[6]": {"biological_target": "T6, 380 human recombinant protein kinases (Homo sapiens, UniProt Q16816)", "T6 construct": "purchased Eurofins (Celle Lévescault)", "T6 sequence (Q16816 whole entry)": "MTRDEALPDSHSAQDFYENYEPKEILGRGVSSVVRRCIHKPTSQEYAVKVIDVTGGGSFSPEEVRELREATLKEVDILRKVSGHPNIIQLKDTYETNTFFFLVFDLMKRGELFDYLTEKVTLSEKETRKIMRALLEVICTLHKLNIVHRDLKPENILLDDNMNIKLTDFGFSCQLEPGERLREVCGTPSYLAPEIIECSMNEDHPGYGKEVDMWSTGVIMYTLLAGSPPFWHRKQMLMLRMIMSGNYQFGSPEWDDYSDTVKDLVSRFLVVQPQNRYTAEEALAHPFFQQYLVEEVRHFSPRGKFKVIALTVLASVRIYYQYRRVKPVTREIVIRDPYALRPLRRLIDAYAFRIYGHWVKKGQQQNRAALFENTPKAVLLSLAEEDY", "settings": "PhKγ1(h), read-out: Inhibition rate", "outline": "as §1"}, "[7]": {"biological_target": "T7, 380 human recombinant protein kinases (Homo sapiens, UniProt Q9BZL6)", "T7 construct": "purchased Eurofins (Celle Lévescault)", "T7 sequence (Q9BZL6 1-878)": "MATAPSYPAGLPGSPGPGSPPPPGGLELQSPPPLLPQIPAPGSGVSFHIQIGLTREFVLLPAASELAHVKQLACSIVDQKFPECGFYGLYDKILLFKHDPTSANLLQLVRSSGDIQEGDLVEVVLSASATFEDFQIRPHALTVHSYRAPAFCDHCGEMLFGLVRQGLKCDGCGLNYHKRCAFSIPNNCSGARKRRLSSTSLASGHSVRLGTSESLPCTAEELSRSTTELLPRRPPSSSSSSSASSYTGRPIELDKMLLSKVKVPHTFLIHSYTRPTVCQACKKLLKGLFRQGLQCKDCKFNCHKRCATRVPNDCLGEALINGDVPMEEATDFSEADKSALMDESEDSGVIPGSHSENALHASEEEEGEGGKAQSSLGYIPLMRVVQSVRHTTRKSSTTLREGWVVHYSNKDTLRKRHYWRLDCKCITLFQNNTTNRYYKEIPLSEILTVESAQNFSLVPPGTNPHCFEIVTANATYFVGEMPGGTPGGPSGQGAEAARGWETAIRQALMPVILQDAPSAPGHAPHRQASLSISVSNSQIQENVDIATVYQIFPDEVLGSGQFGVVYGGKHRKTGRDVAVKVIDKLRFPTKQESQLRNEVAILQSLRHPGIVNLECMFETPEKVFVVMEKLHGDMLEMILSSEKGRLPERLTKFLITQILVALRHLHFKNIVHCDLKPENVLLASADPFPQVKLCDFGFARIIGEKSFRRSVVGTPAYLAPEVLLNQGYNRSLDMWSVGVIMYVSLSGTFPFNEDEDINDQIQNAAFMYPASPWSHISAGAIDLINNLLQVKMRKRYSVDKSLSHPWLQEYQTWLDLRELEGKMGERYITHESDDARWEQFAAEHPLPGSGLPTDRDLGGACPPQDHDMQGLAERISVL", "settings": "PKD2(h), read-out: Inhibition rate", "outline": "as §1"}, "[8]": {"biological_target": "T8, 380 human recombinant protein kinases (Homo sapiens, UniProt Q9UM73)", "T8 construct": "purchased Eurofins (Celle Lévescault)", "T8 sequence (Q9UM73 19-1620)": "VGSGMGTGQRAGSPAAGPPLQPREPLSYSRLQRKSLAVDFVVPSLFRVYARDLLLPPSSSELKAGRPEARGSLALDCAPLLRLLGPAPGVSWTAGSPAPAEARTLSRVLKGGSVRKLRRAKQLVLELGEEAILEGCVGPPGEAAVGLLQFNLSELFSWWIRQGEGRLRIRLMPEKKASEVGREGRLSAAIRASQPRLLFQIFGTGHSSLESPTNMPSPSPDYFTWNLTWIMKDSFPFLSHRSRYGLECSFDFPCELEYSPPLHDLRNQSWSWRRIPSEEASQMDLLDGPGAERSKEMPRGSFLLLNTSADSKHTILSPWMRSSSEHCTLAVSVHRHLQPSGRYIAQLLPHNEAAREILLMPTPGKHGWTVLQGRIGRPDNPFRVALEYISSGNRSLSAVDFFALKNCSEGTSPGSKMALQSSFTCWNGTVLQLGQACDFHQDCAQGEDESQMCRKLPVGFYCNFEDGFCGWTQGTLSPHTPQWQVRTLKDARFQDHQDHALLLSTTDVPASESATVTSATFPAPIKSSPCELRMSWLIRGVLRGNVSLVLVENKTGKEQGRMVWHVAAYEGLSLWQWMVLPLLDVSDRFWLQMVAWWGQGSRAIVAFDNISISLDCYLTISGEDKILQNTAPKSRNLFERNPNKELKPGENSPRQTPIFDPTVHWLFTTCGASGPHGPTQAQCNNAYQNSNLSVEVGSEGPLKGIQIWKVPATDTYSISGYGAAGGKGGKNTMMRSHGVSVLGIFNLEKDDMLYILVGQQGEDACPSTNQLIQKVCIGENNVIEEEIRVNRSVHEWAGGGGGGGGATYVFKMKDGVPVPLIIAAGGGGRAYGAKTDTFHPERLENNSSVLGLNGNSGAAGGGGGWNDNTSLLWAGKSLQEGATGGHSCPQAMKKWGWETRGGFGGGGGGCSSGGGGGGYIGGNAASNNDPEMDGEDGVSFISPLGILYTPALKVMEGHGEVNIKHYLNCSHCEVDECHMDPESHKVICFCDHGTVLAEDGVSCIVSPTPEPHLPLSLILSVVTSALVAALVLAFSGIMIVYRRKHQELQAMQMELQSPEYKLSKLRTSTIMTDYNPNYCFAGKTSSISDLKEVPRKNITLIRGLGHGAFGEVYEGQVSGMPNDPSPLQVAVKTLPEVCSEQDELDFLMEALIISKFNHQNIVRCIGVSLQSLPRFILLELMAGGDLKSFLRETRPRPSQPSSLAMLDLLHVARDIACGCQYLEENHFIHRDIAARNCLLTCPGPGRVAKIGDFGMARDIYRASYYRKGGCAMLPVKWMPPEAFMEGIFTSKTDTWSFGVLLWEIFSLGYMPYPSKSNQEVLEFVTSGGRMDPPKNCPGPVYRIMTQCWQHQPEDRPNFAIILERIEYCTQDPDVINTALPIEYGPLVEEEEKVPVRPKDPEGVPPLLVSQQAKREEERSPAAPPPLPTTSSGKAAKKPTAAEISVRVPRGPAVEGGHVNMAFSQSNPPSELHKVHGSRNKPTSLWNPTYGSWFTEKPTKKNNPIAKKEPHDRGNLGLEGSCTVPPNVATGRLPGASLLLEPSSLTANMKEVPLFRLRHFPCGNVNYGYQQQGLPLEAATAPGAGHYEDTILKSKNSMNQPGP", "settings": "ALK(h), read-out: Inhibition rate", "outline": "as §1"}, "[9]": {"biological_target": "T9, 380 human recombinant protein kinases (Homo sapiens, UniProt Q9Y243)", "T9 construct": "purchased Eurofins (Celle Lévescault)", "T9 sequence (Q9Y243 whole entry)": "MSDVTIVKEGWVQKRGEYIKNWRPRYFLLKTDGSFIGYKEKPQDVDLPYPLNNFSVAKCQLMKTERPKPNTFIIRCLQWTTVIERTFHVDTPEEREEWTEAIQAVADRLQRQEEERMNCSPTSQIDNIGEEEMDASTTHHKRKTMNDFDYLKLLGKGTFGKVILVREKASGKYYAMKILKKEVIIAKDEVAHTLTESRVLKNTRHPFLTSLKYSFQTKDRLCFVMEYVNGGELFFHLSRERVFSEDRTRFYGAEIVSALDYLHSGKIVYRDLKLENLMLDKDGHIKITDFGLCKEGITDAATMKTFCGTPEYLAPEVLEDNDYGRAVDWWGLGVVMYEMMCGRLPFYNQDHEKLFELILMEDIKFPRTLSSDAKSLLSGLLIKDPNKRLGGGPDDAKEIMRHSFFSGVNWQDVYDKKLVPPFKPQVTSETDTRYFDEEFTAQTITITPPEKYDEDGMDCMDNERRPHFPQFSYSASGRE", "settings": "PKBγ(h), read-out: Inhibition rate", "outline": "as §1"}}}
{"compound": "C=CC(=O)Nc1cc(-c2cc(-c3cc4c([nH]3)CCNC4=O)ccn2)ccc1OC(F)(F)F", "note": "[compound 11]", "values": [{"measurement": "inhibition at 0.01 µM", "setting": "[1]; 10 nM", "value": -4, "unit": "%"}, {"measurement": "inhibition at 0.1 µM", "setting": "[1]; 100 nM", "value": -10, "unit": "%"}, {"measurement": "inhibition at 1 µM", "setting": "[1]; 1000 nM", "value": -27, "unit": "%"}, {"measurement": "inhibition at 0.01 µM", "setting": "[2]; 10 nM", "value": -6, "unit": "%"}, {"measurement": "inhibition at 0.1 µM", "setting": "[2]; 100 nM", "value": -10, "unit": "%"}, {"measurement": "inhibition at 1 µM", "setting": "[2]; 1000 nM", "value": -8, "unit": "%"}, {"measurement": "inhibition at 0.01 µM", "setting": "[3]; 10 nM", "value": 0, "unit": "%"}, {"measurement": "inhibition at 0.1 µM", "setting": "[3]; 100 nM", "value": -3, "unit": "%"}, {"measurement": "inhibition at 1 µM", "setting": "[3]; 1000 nM", "value": 11, "unit": "%"}, {"measurement": "inhibition at 0.01 µM", "setting": "[4]; 10 nM", "value": -5, "unit": "%"}, {"measurement": "inhibition at 0.1 µM", "setting": "[4]; 100 nM", "value": -7, "unit": "%"}, {"measurement": "inhibition at 1 µM", "setting": "[4]; 1000 nM", "value": 13, "unit": "%"}, {"measurement": "inhibition at 0.01 µM", "setting": "[5]; 10 nM", "value": -10, "unit": "%"}, {"measurement": "inhibition at 0.1 µM", "setting": "[5]; 100 nM", "value": 0, "unit": "%"}, {"measurement": "inhibition at 1 µM", "setting": "[5]; 1000 nM", "value": 34, "unit": "%"}, {"measurement": "inhibition at 0.01 µM", "setting": "[6]; 10 nM", "value": -3, "unit": "%"}, {"measurement": "inhibition at 0.1 µM", "setting": "[6]; 100 nM", "value": -3, "unit": "%"}, {"measurement": "inhibition at 1 µM", "setting": "[6]; 1000 nM", "value": 2, "unit": "%"}, {"measurement": "inhibition at 0.01 µM", "setting": "[7]; 10 nM", "value": 0, "unit": "%"}, {"measurement": "inhibition at 0.1 µM", "setting": "[7]; 100 nM", "value": 8, "unit": "%"}, {"measurement": "inhibition at 1 µM", "setting": "[7]; 1000 nM", "value": 47, "unit": "%"}, {"measurement": "inhibition at 0.01 µM", "setting": "[8]; 10 nM", "value": 6, "unit": "%"}, {"measurement": "inhibition at 0.1 µM", "setting": "[8]; 100 nM", "value": 6, "unit": "%"}, {"measurement": "inhibition at 1 µM", "setting": "[8]; 1000 nM", "value": 16, "unit": "%"}, {"measurement": "inhibition at 0.01 µM", "setting": "[9]; 10 nM", "value": 0, "unit": "%"}, {"measurement": "inhibition at 0.1 µM", "setting": "[9]; 100 nM", "value": 3, "unit": "%"}, {"measurement": "inhibition at 1 µM", "setting": "[9]; 1000 nM", "value": 9, "unit": "%"}]}
